The record followed here is patent US8648078B2, “PLK inhibitor salts” (Nerviano Medical Sciences S.R.L., priority 2009, dated 2014).

Where only a bound is given, the exact number is not on record here.

What all share (assay type): physicochemical
Data set [1] is described as follows: Solid state stability on storage at stressed temperature and humidity. Conditions: storage at 40° C./75% RH.
Data set [2] can be described thus: Aqueous solubility of compound 937 salts and free base (excess solid stirred in water, filtered, HPLC). The settings on record: thermodynamic from solid, RT, stirred 4 hours, excess solid (target 10 mg/ml). The text has this:
The obtained preparations have been filtered and analyzed by means of HPLC.

A short description of data set [3]: Solubility of compound 937 in early formulation vehicles / as in situ salt. The settings on record: aqueous with cosolvent or surfactant or cyclodextrin; in 10% polysorbate 80 in 5% dextrose solution.
Data set [4] can be described thus: Hygroscopicity test by Dynamic Vapour Sorption (DVS). The settings on record: for Water uptake: 25° C. Here is the method:
The apparatus is a “controlled atmosphere microbalance” where the weighed sample is exposed to programmed variations of the relative humidity (RH) at a constant and controlled temperature. The measured parameters (weight, time and RH), reported in Excel worksheets, allow obtaining hygroscopicity curves over the tested RH range. Sorption/desorption cycles between 0% and 90% RH can be performed at controlled temperature of 25° C. Progressive variations of RH are of 10%; they are operated by the software at the equilibration of the sample weight. This condition can be defined at a constant rate of percent weight variation e.g. 0.005%/min. The experimental results are reported both as in the DVS Isotherm Reports and Isotherm Plots.

`CN1CCN(c2ccc(OC(F)(F)F)c(Nc3ncc4c(n3)-c3c(c(C(N)=O)nn3CCO)CC4)c2)CC1.O=C(O)CCC(=O)O` [compound 937 succinate salt form II]: the “solid form stability (in words)” value in data set [1] was “stable”.
For `CN1CCN(c2ccc(OC(F)(F)F)c(Nc3ncc4c(n3)-c3c(c(C(N)=O)nn3CCO)CC4)c2)CC1` [compound 937, 1-(2-hydroxy-ethyl)-8-[5-(4-methyl-piperazin-1-yl)-2-trifluoromethoxy-phenylamino]-4,5-dihydro-1H-pyrazolo[4,3-h]quinazoline-3-carboxamide], in data set [2], the solubility at 4 h was less than 100 µg/mL. For the same molecule, the solubility in data set [3] was approximately 4000 µg/mL.
`CN1CCN(c2ccc(OC(F)(F)F)c(Nc3ncc4c(n3)-c3c(c(C(N)=O)nn3CCO)CC4)c2)CC1.O=C(O)/C=C/C(=O)O` [compound 937 fumarate salt]: the Water uptake in data set [4] (90% RH) was determined as 1.6%; in data set [4] (DVS sorption ramp, 0.0% RH), 0.0%; in data set [4] (DVS sorption ramp, 10.0% RH) it was 0.1%; in data set [4] (DVS sorption ramp, 20.0% RH), 0.3%; in data set [4] (DVS sorption ramp, 30.0% RH), 0.4%; in data set [4] (DVS sorption ramp, 40.0% RH), 0.6%. Besides, the Water uptake in data set [4] (DVS sorption ramp, 50.0% RH) is given as 0.9%; in data set [4] (DVS sorption ramp, 60.0% RH) it was 1.2%; in data set [4] (DVS sorption ramp, 70.0% RH) it was 1.4%; in data set [4] (DVS sorption ramp, 80.0% RH) it was 1.5%.
`CN1CCN(c2ccc(OC(F)(F)F)c(Nc3ncc4c(n3)-c3c(c(C(N)=O)nn3CCO)CC4)c2)CC1.O=C(O)C[C@H](O)C(=O)O` [compound 937 L-malate salt]: the “hygroscopicity (in words)” value in data set [4] is “moderately hygroscopic”. In addition, the Water uptake entry in data set [4] (90% RH) is on record as “about 4.7%”.
Consider `CN1CCN(c2ccc(OC(F)(F)F)c(Nc3ncc4c(n3)-c3c(c(C(N)=O)nn3CCO)CC4)c2)CC1.O=C(O)/C=C\C(=O)O` [compound 937 maleate salt form II], for which, in data set [4], the “hygroscopicity (in words)” value is “moderately hygroscopic”. In data set [1], the “solid form stability (in words)” value is “undergoes conversion to form I”.
For the molecule `CN1CCN(c2ccc(OC(F)(F)F)c(Nc3ncc4c(n3)-c3c(c(C(N)=O)nn3CCO)CC4)c2)CC1.O=C(O)C(O)C(O)C(=O)O` [compound 937 L-tartrate salt], the “hygroscopicity (in words)” value in data set [4] is “moderately hygroscopic”. The molecule further showed a Water uptake in data set [4] (90% RH) of approximately 5.8%.
